Results published in paper PMC4580987, “Catalytic site inhibition of insulin-degrading enzyme by a small molecule induces glucose intolerance in mice” (Nature Communications, 2015).
Entries after “also recorded” stand apart in the source; their conditions may differ.

Experiments:
human ACE = molecular target: T1, human ACE (Homo sapiens, UniProt P12821); test: ACE selectivity assay; type: biochemical; conditions: >10 μM stands for <10% at 10 μM; read-out: Selectivity IC50 hACE
T1 construct: purchased R&D Systems
Procedure: Briefly, human NEP (R&D Systems; 200 ng ml^−1) was incubated 10 min at room temperature with compound in Hepes 50 mM, NaCl 100 mM, pH 7.4 and the enzymatic reaction started by adding the substrate (final concentration 200 μM). […] Briefly, human ACE (R&D Systems) was incubated 10 min at room temperature with compound in Tris 50 mM 1% NaCl pH 7.4 and the enzymatic reaction is started by adding the substrate (final concentration 300 μM). […] In vitro activity was assayed at CEREP.SA as follows.

[1] = LogD measurement octanol/PBS pH 7.4; type: physicochemical; conditions: read-out: Logd7.4
Procedure: Ten microlitre of a 10 mM solution in DMSO of the compound are diluted either in 490 μl of PBS pH 7.4 or in organic solvent MeOH in a 700 μl-microtube (in triplicate). The tubes are gently shaken 24 h at room temperature, then centrifuged for 5 min at 4,000 r.p.m. The mixtures are filtered over 0.45 μm filters (Millex-LH Millipore). Twenty microlitre of sample are diluted in 180 μl of MeOH. The solubility is determined by the ratio of mass signal area PBS/ organic solvent. Forty microlitre of a 10 mM solution in DMSO of the compound were diluted in 1.960 ml of a 1/1 octanol /PBS at pH 7.4 mixture. The mixture was gently shaken 2 h at room temperature. Twenty microlitre of each phase was diluted in 480 μl of MeOH and analysed by LC–MS. Each compound is tested in triplicate. Log D was determined as the logarithm of the ratio of concentration of product in octanol and PBS respectively, determined by mass signals.

Stability in rat plasma = type: in vitro ADME; conditions: both sexes, 37 °C, read-out: Plasma stability r (t1/2)
Procedure: Incubations were performed in duplicate in Eppendorf tubes. The plasma (mouse plasma, rat plasma (mixed gender), human (mixed gender, all lithium heparine, from Sera Laboratories International) or cell culture medium (differenciation medium: DMEM (Life Technologies, Ref 41965), 0.4 % gentamicine, 10 % FCS (Lonza, Ref DE14-801F) or proliferation medium: DMEM (Life Technologies, Ref 41965), 0.4 % gentamicine, 2 % horse serum (Gbco, Ref16050) was pre-incubated 5 min at 37 °C before the addition of test compounds to a final concentration of 10 μM (1% DMSO maximum). At the defined time points, 50 μl from each tube were removed to another tube containing 450 μl of cold CH3CN+ internal standard (1 μM). After centrifugation (10 min at 10,000 r.p.m.), supernatants are analysed. The degradation half-life (t1/2) values were calculated as t1/2=0.693/k where k is the first-order degradation rate constant. The degradation rate constant (k) was estimated by one-phase exponential decay nonlinear regression analysis of the degradation time course data using Xlfit software (version 2.1.2 or higher) from IDBS.Ltd.

C57BL/6J mice [2] = test: Oral glucose tolerance test (OGTT) in C57BL/6J mice; type: in vivo, mouse
Procedure: (§1) OGTT and IPGTT were performed on 11 to 16 week-old male or female mice (n=4–7 per experimental group). C57BL/6J mice were purchased from Charles River Laboratories (France), Stock no. 000664. C57BL/6J Ide−/− mice were obtained from Guenette[20] and bred in the animal facility of INSERM U1151. WT C57BL/6J mice of the same genetic background were bred in the same animal facility in parallel. NOD Ide−/− mice were generated by backcrossing C57BL/6J Ide−/− mice with NOD wt mice bred in the animal facility of INSERM U1151 and maintained in this facility together with WT NOD mice. Normoglycemic WT and Ide−/− female NOD mice aged 14 weeks were used for OGTTs. Following a 6 h fasting period, a small tail cut was made, basal blood glucose was determined. […] Fifteen minutes later, blood glucose concentrations were measured before and after (up to 120 min, as shown) oral (2 g kg^−1 or 3 g kg^−1, as shown) or intraperitoneal (1.5 g kg^−1) glucose administration. In one series of OGTTs using 3 g kg^−1 glucose and shown in Fig. 5, groups of WT and Ide−/− were inverted between experiments, such that mice initially treated with vehicle were treated 2 days later with 1 and vice versa. Blood glucose levels were determined using an Accu-Check glucometer (Roche Diagnostics). Areas under the curves (AUC) for OGTT and IPGTT were calculated to evaluate glucose tolerance. Plasma insulin concentrations were measured by ELISA (cat. no. 10-1247-01,Mercodia) in blood samples collected 15 min before and 15 and 90 min relative to oral glucose injection. The protocol was approved by the ethical comitee CEEA Paris Descartes (CEEA34).

NOD mice = test: Oral glucose tolerance test (OGTT) in NOD mice; type: in vivo, mouse; conditions: 50 mg kg^−1 ip
Procedure: as §1, with “In one series of OGTTs using 3 g kg^−1 glucose and shown in Fig. 5, groups of WT and Ide−/− were inverted between experiments, such that mice initially treated with vehicle were treated 2 days later with 1 and vice versa.” left out, “The protocol was approved by the ethical comitee CEEA Paris Descartes (CEEA34).” left out

C57BL/6J mice [3] = test: Intraperitoneal glucose tolerance test (IPGTT); type: in vivo, mouse; conditions: 50 mg kg^−1 ip, intraperitoneal glucose 1.5 g kg^−1
Procedure: as §1, with “In one series of OGTTs using 3 g kg^−1 glucose and shown in Fig. 5, groups of WT and Ide−/− were inverted between experiments, such that mice initially treated with vehicle were treated 2 days later with 1 and vice versa.” left out, “The protocol was approved by the ethical comitee CEEA Paris Descartes (CEEA34).” left out

C57BL/6J mice [4] = test: Pyruvate tolerance test; type: in vivo, mouse; conditions: 50 mg kg^−1 ip, pyruvate 2 g kg^−1
Procedure: Pyruvate tolerance test was performed on 18 h-fasted mice (12 week-old male C57BL/6J mice, n=8 for each group, randomized on blood glucose at the end of the fasting period). […] Fifteen minutes later, blood glucose was measured before and after (up to 120 min) intraperitoneal sodium pyruvate (2 g kg^−1) injection. The AUC of glycaemia versus time were calculated to estimate the total glucose synthesized from pyruvate. Blood glucose levels were determined using an Accu-Check glucometer (Roche Diagnostics). The protocol was approved by the ethical comitee CEEA Nord Pas de Calais (CEEA75).

T1 sequence (P12821 30-1306): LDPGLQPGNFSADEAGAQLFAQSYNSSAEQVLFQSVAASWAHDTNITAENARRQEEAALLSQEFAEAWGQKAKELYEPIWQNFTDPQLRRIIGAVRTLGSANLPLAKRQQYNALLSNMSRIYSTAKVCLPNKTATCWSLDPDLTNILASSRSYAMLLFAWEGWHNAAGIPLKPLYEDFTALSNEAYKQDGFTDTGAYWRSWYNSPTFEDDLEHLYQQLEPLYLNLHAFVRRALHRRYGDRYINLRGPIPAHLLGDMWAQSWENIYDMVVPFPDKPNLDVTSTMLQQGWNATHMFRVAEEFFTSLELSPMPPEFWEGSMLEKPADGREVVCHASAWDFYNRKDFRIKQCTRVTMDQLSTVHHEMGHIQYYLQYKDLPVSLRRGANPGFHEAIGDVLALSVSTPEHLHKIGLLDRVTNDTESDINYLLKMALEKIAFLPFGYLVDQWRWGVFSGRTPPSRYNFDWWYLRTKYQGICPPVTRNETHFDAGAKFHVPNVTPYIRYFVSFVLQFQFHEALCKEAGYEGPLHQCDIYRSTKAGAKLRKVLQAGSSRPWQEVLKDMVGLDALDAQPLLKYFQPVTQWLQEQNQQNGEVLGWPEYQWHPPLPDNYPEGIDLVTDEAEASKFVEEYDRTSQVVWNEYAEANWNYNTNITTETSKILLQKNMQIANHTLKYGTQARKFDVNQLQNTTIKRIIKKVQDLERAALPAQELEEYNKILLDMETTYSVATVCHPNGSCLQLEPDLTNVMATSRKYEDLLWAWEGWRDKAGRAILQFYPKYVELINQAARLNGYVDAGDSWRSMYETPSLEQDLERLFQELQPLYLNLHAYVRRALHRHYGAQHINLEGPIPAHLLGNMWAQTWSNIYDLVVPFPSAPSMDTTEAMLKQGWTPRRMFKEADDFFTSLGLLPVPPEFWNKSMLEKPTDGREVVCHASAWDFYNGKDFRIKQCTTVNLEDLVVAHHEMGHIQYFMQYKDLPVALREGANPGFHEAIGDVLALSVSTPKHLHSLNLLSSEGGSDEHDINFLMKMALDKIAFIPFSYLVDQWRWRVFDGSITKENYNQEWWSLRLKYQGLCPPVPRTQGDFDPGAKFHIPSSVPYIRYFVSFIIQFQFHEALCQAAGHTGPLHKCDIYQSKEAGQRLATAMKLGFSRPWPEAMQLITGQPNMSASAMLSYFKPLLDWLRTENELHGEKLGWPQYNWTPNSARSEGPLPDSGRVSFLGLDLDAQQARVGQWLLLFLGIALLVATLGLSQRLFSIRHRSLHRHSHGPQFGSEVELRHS

O=C(C[C@@H](Cc1ccc2ccccc2c1)n1cc(CNC(=O)c2ccc(F)cc2)nn1)NO [Compound 1]
IC50 (human ACE): > 10 µM | logD [1]: 2.2 | half-life at 10 μM (Stability in rat plasma): 13.3 h | glucose tolerance in OGTT, WT C57BL/6J (C57BL/6J mice [2]; 50 mg kg^−1 ip, 3 g kg^−1 oral glucose 15 min later): Impairs glucose tolerance in OGTT; also recorded: acute glucose intolerance | glucose tolerance in OGTT, Ide−/− C57BL/6J (C57BL/6J mice [2]; 50 mg kg^−1 ip, Ide−/− mice): did not develop glucose intolerance | plasma insulin concentrations in OGTT, Ide−/− C57BL/6J (C57BL/6J mice [2]; 50 mg kg^−1 ip, Ide−/− mice): no effect | plasma glucose after oral glucose administration (OGTT compared with IPGTT) (C57BL/6J mice [2]; 50 mg kg^−1 ip, oral glucose 2 g kg^−1): significantly increased | plasma insulin levels in OGTT versus vehicle, WT C57BL/6J (C57BL/6J mice [2]; baseline, 15 and 90 min after glucose load): similar | glucose tolerance in OGTT, WT NOD (NOD mice; 14 week-old female WT NOD mice, 3 g kg^−1 glucose): strong impairment of glucose tolerance | insulinaemia in OGTT, WT NOD (NOD mice; WT NOD mice): hyperinsulinemia | plasma glucose / glucose tolerance in IPGTT (C57BL/6J mice [3]): Impairs glucose tolerance in IPGTT | hepatic gluconeogenesis in pyruvate tolerance test (C57BL/6J mice [4]): No effect on gluconeogenesis; also recorded: not altered
